Measured values taken from PubChem BioAssay AID1963449 (Molecular Pharmacology Branch, DTP, NCI, 2024).

System: 596521-263-R-J1-PDC complex spheroid growth
Experiment: Anticancer human tumor 596521-263-R-J1-PDC patient-derived soft tissue sarcoma cell line growth inhibition [Asc]
Details: for IC50: curve of first compound; for viability, T/C: stronger effect = lower value; active means viability on the fitted dose curve at most 10% of control; inactive means the rest
Experimental: Multicellular complex tumor spheroid response to apoptosis pathway targeting inhibitors Alrizomadlin, Pelcitoclax, and Dasminapant in combination with a variety of drugs and investigational agents in selected tumor cell lines
The MDM2 inhibitor alrizomadlin, the Bcl-2/Bcl-xL inhibitor pelcitoclax, and the IAPs inhibitor dasminapant were evaluated both individually and in combination with standard of care and investigational anticancer small molecules within a complex spheroid model of solid tumors. . Complex spheroids include a stromal component modeled by human endothelial cells (HUVEC) and fibroblasts modeled by human mesenchymal stem cells (MSCs). The concentration ranges selected for each drug and investigational agent were based upon clinically achievable concentrations if the clinical Cmax of the agent was known.
Compounds. The drugs and investigational agents: alrizomadlin (APG-115; NSC831270), pelcitoclax (APG-1252; NSC835773), dasminapant (APG-1387;NSC834197), TAK-243 (NSC785004), copanlisib (NSC809693), olaparib (NSC753686), talazoparib (NSC767125), cobimetinib (NSC 768068), eltanexor (KPT-8602, NSC 794443), abemaciclib (NSC 768073), sotorasib (NSC818433), adagrasib (NSC 831453), MRTX-1133 (NSC 836407), Iadademestat (ORY1001, NSC 806812), and RMC-4630 (NSC839698), were obtained from the NCI Developmental Therapeutics Program Chemical Repository. The FDA-approved anticancer drug set is available from the Developmental Therapeutics Program at https://dtp.cancer.gov/organization/dscb/obtaining/available plates.htm. […] The stock solutions were prepared in dimethyl sulfoxide (DMSO, Sigma-Aldrich, St. Louis, MO, cat. D2650) at 800-fold the tested concentration and stored at -70 degrees C prior to their use. All drugs and investigational agents were tested over a range starting from a high concentration at or near the clinical Cmax and decreasing in half-log increments. If the clinical Cmax for an agent had not been determined, the highest concentration tested was 10 microM.
The patient-derived cancer (PDC) cell lines include five colon adenocarcinomas: 186277-243-T-J2-PDC, 616215-338-R-J1-PDC, 439559-082-T-J2-PDC, 463943-066-T-J2-PDC, and 519858-162-T-J1-PDC; three pancreatic carcinomas: 323965-272-R-J2-PDC, 521955-158-R6-J3-PDC, and 521955-158-R2-J5-PDC; two uterine sarcomas: 327498-152-R-J2-PDC and 993429-296-R-J1-PDC; two rhabdomyosarcomas: 755483-174-R-J1-PDC and 772245-204-R-J1-PDC; two soft tissue sarcomas: 126254-015-R-J1-PDC and 494315-158-R-J1-PDC; two malignant fibrous histiocytomas: 317291-083-R-J1-PDC and 596521-263-R-J1-PDC; two breast carcinomas: 171881-019-R-J1-PDC and 885512-296-R-J2-PDC; and one ovarian carcinoma: 6556581-035-R-J-PDC were obtained from the NCI PDMR, (https://pdmr.cancer.gov). The established cell lines HSSY-2 synovial sarcoma (RRID:CVCL 8719), SYO-1 synovial sarcoma (RRID:CVCL_7146), MPNST malignant peripheral neural sheath tumor were obtained from the Sloan Kettering Institute. The following established cell lines were purchased from the American Type Culture Collection (ATCC, Manassas, VA), Sor the received from the NCI repository:, PANC-1 pancreatic carcinoma (CRL-1469, RRID:CVCL_0480), OVCAR-5 ovarian carcinoma (RRID:CVCL_1628), OVCAR-8 ovarian carcinoma (RRID:CVCL_1629), , MCF-7 breast carcinoma (CRL-12584, RRID:CVCL_0031), MDA-MB-231 breast carcinoma (CRL-12532, RRID:CVCL_0062), NCI-H1876 small cell lung carcinoma (CRL-5902, RRID:CVCL_1503), NCI-H510A small cell lung carcinoma (HTB-184, RRID:CVCL_1565), NCI-H1417 (CRL-5869, RRID:CVCL_1469), and NCI-H196 small cell lung carcinoma (CRL-5823, RRID:CVCL_1509). Dr. Peter Houghton (Greehey Children's Cancer Research Institute, University of Texas Health Science Center, San Antonio, TX) provided Rh-18 rhabdomyosarcoma (RRID:CVCL_1659). Pooled donor human umbilical vein endothelial cells (HUVEC, Lonza, cat. CC-2519) and human mesenchymal stem cells (hMSC, Lonza, cat. PT-2501) were purchased from Lonza (Walkersville, MD).
Cell Culture. […]
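Further: spheroids exposed to compounds for 7 days.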

NC1CCC(NC2CC2c2ccccc2)CC1 (configuration not stated) + CCN1C(C(=O)NC23CCC(C(=O)O)(CC2)CC3)C(c2cccc(Cl)c2F)C2(C(=O)Nc3cc(Cl)ccc32)C12CCCCC2
inactive: viability, T/C (second compound 0.00949 µM, first compound 0.000316 µM) 98.8% | viability, T/C (second compound 0.00949 µM, first compound 0.001 µM) 78.1% | viability, T/C (second compound 0.00949 µM, first compound 0.00316 µM) 84.2% | viability, T/C (second compound 0.00949 µM, first compound 0.01 µM) 88.9% | viability, T/C (second compound 0.00949 µM, first compound 0.0316 µM) 83.7% | viability, T/C (second compound 0.00949 µM, first compound 0.1 µM) 105% | viability, T/C (second compound 0.03 µM, first compound 0.000316 µM) 84.2% | viability, T/C (second compound 0.03 µM, first compound 0.001 µM) 85.3% | viability, T/C (second compound 0.03 µM, first compound 0.00316 µM) 89.6% | viability, T/C (second compound 0.03 µM, first compound 0.01 µM) 87.6% | viability, T/C (second compound 0.03 µM, first compound 0.0316 µM) 82.5% | viability, T/C (second compound 0.03 µM, first compound 0.1 µM) 88.7% | viability, T/C (second compound 0.0949 µM, first compound 0.000316 µM) 95.3% | viability, T/C (second compound 0.0949 µM, first compound 0.001 µM) 87.9% | viability, T/C (second compound 0.0949 µM, first compound 0.00316 µM) 85% | viability, T/C (second compound 0.0949 µM, first compound 0.01 µM) 84.5% | viability, T/C (second compound 0.0949 µM, first compound 0.0316 µM) 89.1% | viability, T/C (second compound 0.0949 µM, first compound 0.1 µM) 81.4% | viability, T/C (second compound 0.3 µM, first compound 0.000316 µM) 87.7% | viability, T/C (second compound 0.3 µM, first compound 0.001 µM) 87.7% | viability, T/C (second compound 0.3 µM, first compound 0.00316 µM) 80.7% | viability, T/C (second compound 0.3 µM, first compound 0.01 µM) 94.1% | viability, T/C (second compound 0.3 µM, first compound 0.0316 µM) 85.4% | viability, T/C (second compound 0.3 µM, first compound 0.1 µM) 87.8% | viability, T/C (second compound 0.949 µM, first compound 0.000316 µM) 94.7% | viability, T/C (second compound 0.949 µM, first compound 0.001 µM) 87.2% | viability, T/C (second compound 0.949 µM, first compound 0.00316 µM) 87.9% | viability, T/C (second compound 0.949 µM, first compound 0.01 µM) 97.3% | viability, T/C (second compound 0.949 µM, first compound 0.0316 µM) 92.8% | viability, T/C (second compound 0.949 µM, first compound 0.1 µM) 82.5% | viability, T/C (second compound 3 µM, first compound 0.000316 µM) 80.9% | viability, T/C (second compound 3 µM, first compound 0.001 µM) 83.2% | viability, T/C (second compound 3 µM, first compound 0.00316 µM) 85.2% | viability, T/C (second compound 3 µM, first compound 0.01 µM) 71% | viability, T/C (second compound 3 µM, first compound 0.0316 µM) 75.9% | viability, T/C (second compound 3 µM, first compound 0.1 µM) 82.7%
> 0.1 µM: IC50 (second compound 0.00949 µM) | IC50 (second compound 0.03 µM) | IC50 (second compound 0.0949 µM) | IC50 (second compound 0.3 µM) | IC50 (second compound 0.949 µM) | IC50 (second compound 3 µM)
